Test [1] has as its system JAK2, TYK2/p-STAT4 (Tyr693) activated by IL-12 in NK-92 cell line. Description: IL-12-JAK2, TYK2/p-STAT4 (Tyr693) inhibition IC50 cellular assay. It counts as cell-based. To be noted: for Selectivity fold (TYK2/JAK2): Cellular assay, pSTAT5/GM-CSF IC50 vs pSTAT4/IL-12 IC50; for IC50: NK92, Cellular assay, read-out: pSTAT4/IL-12 IC50. Put shortly: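 p-STAT4 (Tyr693) in lysates was measured by AlphaLISA SureFire Ultra after a 30 min IL-12 challenge (40 ng/ml final) at 37° C. Overnight-starved, IL-2-free NK-92 cells had been pretreated 1 h with compound at 10000 to 0.61 nM (4-fold, 8 points). IC50 values came from four-parameter logistic fitting.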

Test [2] concerns the target T1, TYK2-JH2 (aa 575-869, in-house) protein (Homo sapiens, UniProt P29597).
T1 construct: TYK2-JH2 (aa 575-869, in-house) protein; made in house
Description: TYK2-JH2 biochemical assay (HTRF probe displacement). It counts as binding. The conditions noted are these: Biochemical assay; read-out: TYK2-JH2 IC50. In a few lines:
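HTRF probe-displacement format: compound dilutions (10 points, 5-fold, from 500 uM in DMSO at 500×) were combined with 0.2 nM TYK2-JH2 protein for 0.5 h at room temperature in HEPES pH 7.5 buffer with MgCl2, BSA, DTT and Brij-35. Percent inhibition came from the 615/665 nm fluorescence ratio, fitted to a four-parameter logistic for IC50.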
(In general: TR-FRET usually uses a lanthanide donor and a delayed reading to cut background.)

A further test concerns pSTAT5/GM-CSF. Description: pSTAT5/GM-CSF cellular assay (JAK2 selectivity). It counts as cell-based.

T1 sequence (P29597 575-869): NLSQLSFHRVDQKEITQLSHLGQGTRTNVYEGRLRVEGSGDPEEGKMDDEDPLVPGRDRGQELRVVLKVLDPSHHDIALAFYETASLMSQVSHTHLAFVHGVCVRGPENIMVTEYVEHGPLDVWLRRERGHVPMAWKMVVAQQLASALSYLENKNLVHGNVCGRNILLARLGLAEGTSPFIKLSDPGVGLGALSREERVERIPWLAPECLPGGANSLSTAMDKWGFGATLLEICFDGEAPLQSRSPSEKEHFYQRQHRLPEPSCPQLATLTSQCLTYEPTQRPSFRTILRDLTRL

`COCCOc1ccc(-c2cnc(NC(C)=O)cc2Nc2cc(OC)cc(S(C)(=O)=O)n2)nc1` [Example D5, N-(4′-((4-methoxy-6-(methylsulfonyl)pyridin-2-yl)amino)-5-(2-methoxyethoxy)-[2,3′-bipyridin]-6′-yl)acetamide]: the “Selectivity fold (TYK2/JAK2)” value in test [1] is recorded as over 10101 fold. Besides, the IC50 in test [1] is 0.99 nM; in test [2], 0.036 nM; with pSTAT5/GM-CSF, over 10000 nM.

On to `COCCOc1ccc(-c2cnc(NC(C)=O)cc2Nc2cc(OC(C)C)cc(S(C)(=O)=O)n2)nc1` [Example D6, N-(4′-((4-isopropoxy-6-(methylsulfonyl)pyridin-2-yl)amino)-5-(2-methoxyethoxy)-[2,3′-bipyridin]-6′-yl)acetamide], for which, in test [1], the “Selectivity fold (TYK2/JAK2)” value is over 16863 fold. The IC50 in test [1] was 0.593 nM; in test [2] it was 0.025 nM; in the test on pSTAT5/GM-CSF, over 10000 nM.

Take `COCCOc1ccc(-c2cnc(NC(C)=O)cc2Nc2cc(OC[C@@H](C)OC)cc(S(C)(=O)=O)n2)nc1` [Example D7, (R)-N-(5-(2-methoxyethoxy)-4′-((4-(2-methoxypropoxy)-6-(methylsulfonyl)pyridin-2-yl)amino)-[2,3′-bipyridin]-6′-yl)acetamide]: the “Selectivity fold (TYK2/JAK2)” value in test [1] was over 12422 fold. Besides, the IC50 in test [1] was 0.805 nM; in test [2], 0.031 nM; with pSTAT5/GM-CSF, over 10000 nM.

With `COCCOc1ccc(-c2cnc(NC(C)=O)cc2Nc2cc(OCCOC)cc(S(C)(=O)=O)n2)nc1` [Example D8, N-(5-(2-methoxyethoxy)-4′-((4-(2-methoxyethoxy)-6-(methylsulfonyl)pyridin-2-yl)amino)-[2,3′-bipyridin]-6′-yl)acetamide], in test [1], the “Selectivity fold (TYK2/JAK2)” value is reported as over 22573 fold. Further, the IC50 in test [1] was 0.443 nM; in test [2], 0.036 nM; with pSTAT5/GM-CSF, over 10000 nM.

As to `CCOc1cc(Nc2cc(NC(C)=O)ncc2-c2ccc(OCCOC)cn2)nc(S(C)(=O)=O)c1` [Example D9, N-(4′-((4-ethoxy-6-(methylsulfonyl)pyridin-2-yl)amino)-5-(2-methoxyethoxy)-[2,3′-bipyridin]-6′-yl)acetamide], in test [1], the “Selectivity fold (TYK2/JAK2)” value is listed as over 20876 fold. Moreover, the results for the IC50 (in test [1]; in test [2]; with pSTAT5/GM-CSF) were 0.479 nM, 0.021 nM and over 10000 nM, respectively.

For `COCCOc1ccc(-c2cnc(NC(C)=O)cc2Nc2cc(OCC3CC3)cc(S(C)(=O)=O)c2)nc1` [Example D10, N-(4′-((3-(cyclopropylmethoxy)-5-(methylsulfonyl)phenyl)amino)-5-(2-methoxyethoxy)-[2,3′-bipyridin]-6′-yl)acetamide], the “Selectivity fold (TYK2/JAK2)” value in test [1] is over 789 fold. Besides, the IC50 in test [1] is 12.7 nM; in test [2], 0.052 nM; in the test with pSTAT5/GM-CSF it was over 10000 nM.

As to `COCc1ccc(-c2cnc(NC(C)=O)cc2Nc2cccc(S(C)(=O)=O)c2)nc1` [Example E1, N-(5-(methoxymethyl)-4′-((3-(methylsulfonyl)phenyl)amino)-[2,3′-bipyridin]-6′-yl)acetamide], the “Selectivity fold (TYK2/JAK2)” value in test [1] is recorded as over 2197 fold. In addition, the figures for the IC50 (in test [1]; in test [2]; in the test with pSTAT5/GM-CSF) were 4.55 nM, 0.022 nM and over 10000 nM, respectively.

Regarding `COCc1ccc(-c2cnc(NC(C)=O)cc2Nc2cc(C)cc(S(C)(=O)=O)n2)nc1` [Example E2, N-(5-(methoxymethyl)-4′-((4-methyl-6-(methylsulfonyl)pyridin-2-yl)amino)-[2,3′-bipyridin]-6′-yl)acetamide], the “Selectivity fold (TYK2/JAK2)” value in test [1] is 17867 fold. Besides, the IC50 in test [1] was found to be 0.325 nM; in test [2], 0.017 nM; in the test with pSTAT5/GM-CSF, 5810 nM.

`COCc1ccc(-c2cnc(NC(C)=O)cc2Nc2cc(OC[C@@H](C)OC)cc(S(C)(=O)=O)n2)nc1` [Example E3, (R)-N-(5-(methoxymethyl)-4′-((4-(2-methoxypropoxy)-6-(methylsulfonyl)pyridin-2-yl)amino)-[2,3′-bipyridin]-6′-yl)acetamide]: the “Selectivity fold (TYK2/JAK2)” value in test [1] was over 15503 fold. Besides, the IC50 in test [1] was 0.645 nM; in test [2] it was 0.035 nM; with pSTAT5/GM-CSF, over 10000 nM.

For `COCc1ccc(-c2cnc(NC(C)=O)cc2Nc2cc(OC(C)C)cc(S(C)(=O)=O)n2)nc1` [Example E4, N-(4′-((4-isopropoxy-6-(methylsulfonyl)pyridin-2-yl)amino)-5-(methoxymethyl)-[2,3′-bipyridin]-6′-yl)acetamide], the “Selectivity fold (TYK2/JAK2)” value in test [1] is given as over 18656 fold. Also, the IC50 in test [1] was 0.536 nM; in test [2], 0.022 nM; in the test on pSTAT5/GM-CSF, over 10000 nM.

For `COCCOc1cc(Nc2cc(NC(C)=O)ncc2-c2ccc(COC)cn2)nc(S(C)(=O)=O)c1` [Example E5, N-(4′-((4-(2-methoxyethoxy)-6-(methylsulfonyl)pyridin-2-yl)amino)-5-(methoxymethyl)-[2,3′-bipyridin]-6′-yl)acetamide], the “Selectivity fold (TYK2/JAK2)” value in test [1] is given as over 19960 fold. In addition, the IC50 was 0.501 nM in test [1], 0.022 nM in test [2] and over 10000 nM in the test on pSTAT5/GM-CSF.

As to `COCc1ccc(-c2cnc(NC(C)=O)cc2Nc2cc(OCCO)cc(S(C)(=O)=O)n2)nc1` [Example E6, N-(4′-((4-(2-hydroxyethoxy)-6-(methylsulfonyl)pyridin-2-yl)amino)-5-(methoxymethyl)-[2,3′-bipyridin]-6′-yl)acetamide], in test [1], the “Selectivity fold (TYK2/JAK2)” value is reported as over 3676 fold. Moreover, the IC50 was 2.72 nM in test [1], 0.029 nM in test [2] and over 10000 nM in the test with pSTAT5/GM-CSF.

For the compound `COCc1ccc(-c2cnc(NC(C)=O)cc2Nc2cc(OC)cc(S(C)(=O)=O)n2)nc1` [Example E7, N-(4′-((4-methoxy-6-(methylsulfonyl)pyridin-2-yl)amino)-5-(methoxymethyl)-[2,3′-bipyridin]-6′-yl)acetamide], the “Selectivity fold (TYK2/JAK2)” value in test [1] is given as over 22371 fold. In addition, the IC50 in test [1] was 0.447 nM; in test [2] it was 0.02 nM; with pSTAT5/GM-CSF, over 10000 nM.

With `COCc1ccc(-c2cnc(NC(C)=O)cc2Nc2cc(O[C@H]3C[C@H](O)C3)cc(S(C)(=O)=O)n2)nc1` [Example E8, N-(4′-((4-((1r,3r)-3-hydroxycyclobutoxy)-6-(methylsulfonyl)pyridin-2-yl)amino)-5-(methoxymethyl)-[2,3′-bipyridin]-6′-yl)acetamide], the “Selectivity fold (TYK2/JAK2)” value in test [1] is over 3496 fold. In addition, the IC50 in test [1] was 2.86 nM; in test [2], 0.034 nM; in the test with pSTAT5/GM-CSF it was over 10000 nM.

Consider `COCc1ccc(-c2cnc(NC(C)=O)cc2Nc2cc(COC)cc(S(C)(=O)=O)n2)nc1` [Example E9, N-(5-(methoxymethyl)-4′-((4-(methoxymethyl)-6-(methylsulfonyl)pyridin-2-yl)amino)-[2,3′-bipyridin]-6′-yl)acetamide], for which the “Selectivity fold (TYK2/JAK2)” value in test [1] is over 19960 fold. Further, the figures for the IC50 (in test [1]; in test [2]; in the test on pSTAT5/GM-CSF) were 0.504 nM, 0.022 nM and over 10000 nM, respectively.

Consider `CC(=O)Nc1cc(Nc2cc(C)cc(S(C)(=O)=O)n2)c(-c2ccc(C(F)(F)F)cn2)cn1` [Example F1, N-(4′-((4-methyl-6-(methylsulfonyl)pyridin-2-yl)amino)-5-(trifluoromethyl)-[2,3′-bipyridin]-6′-yl)acetamide], for which, in test [1], the “Selectivity fold (TYK2/JAK2)” value is listed as over 8130 fold. In addition, the IC50 in test [1] is 1.23 nM; in test [2] it was 0.046 nM; in the test on pSTAT5/GM-CSF, over 10000 nM.

For `CC(=O)Nc1cc(Nc2cccc(S(C)(=O)=O)c2)c(-c2ccc(C(F)(F)F)cn2)cn1` [Example F2, N-(4′-((3-(methylsulfonyl)phenyl)amino)-5-(trifluoromethyl)-[2,3′-bipyridin]-6′-yl)acetamide], the “Selectivity fold (TYK2/JAK2)” value in test [1] is over 451 fold. The IC50 was 22.1 nM in test [1], 0.051 nM in test [2] and over 10000 nM with pSTAT5/GM-CSF.

In the case of `CC(=O)Nc1cc(Nc2cc(OC(C)C)cc(S(C)(=O)=O)n2)c(-c2ccc(C(F)(F)F)cn2)cn1` [Example F9, N-(4′-((4-isopropoxy-6-(methylsulfonyl)pyridin-2-yl)amino)-5-(trifluoromethyl)-[2,3′-bipyridin]-6′-yl)acetamide], the “Selectivity fold (TYK2/JAK2)” value in test [1] is listed as over 1834 fold. Further, the IC50 in test [1] is 5.45 nM; in test [2] it was 0.06 nM; with pSTAT5/GM-CSF, over 10000 nM.

Consider `COCCOc1cc(Nc2cc(NC(C)=O)ncc2-c2ccc(C(F)(F)F)cn2)nc(S(C)(=O)=O)c1` [Example F11, N-(4′-((4-(2-methoxyethoxy)-6-(methylsulfonyl)pyridin-2-yl)amino)-5-(trifluoromethyl)-[2,3′-bipyridin]-6′-yl)acetamidecarboxamide], for which, in test [1], the “Selectivity fold (TYK2/JAK2)” value was over 14184 fold. Moreover, the values for the IC50 (in test [1]; in test [2]; with pSTAT5/GM-CSF) were 0.705 nM, 0.037 nM and over 10000 nM, respectively.

With `CC(=O)Nc1cc(Nc2cc(OCCO)cc(S(C)(=O)=O)n2)c(-c2ccc(C(F)(F)F)cn2)cn1` [Example F12, N-(4′-((4-(2-hydroxyethoxy)-6-(methylsulfonyl)pyridin-2-yl)amino)-5-(trifluoromethyl)-[2,3′-bipyridin]-6′-yl)acetamide], in test [1], the “Selectivity fold (TYK2/JAK2)” value was over 7407 fold. The IC50 in test [1] was 1.35 nM; in test [2] it was 0.034 nM; in the test on pSTAT5/GM-CSF, over 10000 nM.

The record behind these values is patent US20240043435A1, “TYK-2 INHIBITOR” (BEIGENE, LTD., priority 2020, published 2024).
